Measured values from ChEMBL document CHEMBL2440027, “Further SAR studies on bicyclic basic merbarone analogues as potent antiproliferative agents” (Bioorg Med Chem, 2013).
pIC50: −log10 of the molar value.

How the values were obtained:
[1] = tested on: UACC-257; experiment: Growth inhibition of human UACC257 cells assessed as cell growth at 10 uM after 48 hrs by sulforhodamine B assay relative to control; type: functional; details: UACC-257, 48 h, read-out: Activity
[2] = tested on: SF-295; experiment: Growth inhibition of human SF295 cells after 48 hrs by sulforhodamine B assay; type: functional; details: SF-295, 48 h; for CC50: read-out: LC50 (the source's name)
[3] = tested on: U-251; experiment: Growth inhibition of human U251 cells after 48 hrs by sulforhodamine B assay; type: functional; details: U-251, 48 h; for CC50: read-out: LC50 (the source's name)
[4] = tested on: MDA-MB-435; experiment: Growth inhibition of human MDA-MB-435 cells after 48 hrs by sulforhodamine B assay; type: functional; details: MDA-MB-435, 48 h; for CC50: read-out: LC50 (the source's name)
[5] = tested on: SF-539; experiment: Growth inhibition of human SF539 cells assessed as cell growth at 10 uM after 48 hrs by sulforhodamine B assay relative to control; type: functional; details: SF-539, 48 h, read-out: Activity
[6] = tested on: OVCAR-8; experiment: Growth inhibition of human OVCAR8 cells assessed as cell growth at 10 uM after 48 hrs by sulforhodamine B assay relative to control; type: functional; details: OVCAR-8, 48 h, read-out: Activity
[7] = tested on: RPMI-8226; experiment: Growth inhibition of human RPMI8226 cells after 48 hrs by sulforhodamine B assay; type: functional; details: RPMI-8226, 48 h; for CC50: read-out: LC50 (the source's name)
[8] = target: DNA topoisomerase 2-alpha (Homo sapiens, UniProt P11388); experiment: Inhibition of human topoisomerase 2alpha-mediated relaxation of supercoiled pBR322 after 1 hr by ethidium bromide staining
DNA topoisomerase 2-alpha, sequence (P11388 whole entry): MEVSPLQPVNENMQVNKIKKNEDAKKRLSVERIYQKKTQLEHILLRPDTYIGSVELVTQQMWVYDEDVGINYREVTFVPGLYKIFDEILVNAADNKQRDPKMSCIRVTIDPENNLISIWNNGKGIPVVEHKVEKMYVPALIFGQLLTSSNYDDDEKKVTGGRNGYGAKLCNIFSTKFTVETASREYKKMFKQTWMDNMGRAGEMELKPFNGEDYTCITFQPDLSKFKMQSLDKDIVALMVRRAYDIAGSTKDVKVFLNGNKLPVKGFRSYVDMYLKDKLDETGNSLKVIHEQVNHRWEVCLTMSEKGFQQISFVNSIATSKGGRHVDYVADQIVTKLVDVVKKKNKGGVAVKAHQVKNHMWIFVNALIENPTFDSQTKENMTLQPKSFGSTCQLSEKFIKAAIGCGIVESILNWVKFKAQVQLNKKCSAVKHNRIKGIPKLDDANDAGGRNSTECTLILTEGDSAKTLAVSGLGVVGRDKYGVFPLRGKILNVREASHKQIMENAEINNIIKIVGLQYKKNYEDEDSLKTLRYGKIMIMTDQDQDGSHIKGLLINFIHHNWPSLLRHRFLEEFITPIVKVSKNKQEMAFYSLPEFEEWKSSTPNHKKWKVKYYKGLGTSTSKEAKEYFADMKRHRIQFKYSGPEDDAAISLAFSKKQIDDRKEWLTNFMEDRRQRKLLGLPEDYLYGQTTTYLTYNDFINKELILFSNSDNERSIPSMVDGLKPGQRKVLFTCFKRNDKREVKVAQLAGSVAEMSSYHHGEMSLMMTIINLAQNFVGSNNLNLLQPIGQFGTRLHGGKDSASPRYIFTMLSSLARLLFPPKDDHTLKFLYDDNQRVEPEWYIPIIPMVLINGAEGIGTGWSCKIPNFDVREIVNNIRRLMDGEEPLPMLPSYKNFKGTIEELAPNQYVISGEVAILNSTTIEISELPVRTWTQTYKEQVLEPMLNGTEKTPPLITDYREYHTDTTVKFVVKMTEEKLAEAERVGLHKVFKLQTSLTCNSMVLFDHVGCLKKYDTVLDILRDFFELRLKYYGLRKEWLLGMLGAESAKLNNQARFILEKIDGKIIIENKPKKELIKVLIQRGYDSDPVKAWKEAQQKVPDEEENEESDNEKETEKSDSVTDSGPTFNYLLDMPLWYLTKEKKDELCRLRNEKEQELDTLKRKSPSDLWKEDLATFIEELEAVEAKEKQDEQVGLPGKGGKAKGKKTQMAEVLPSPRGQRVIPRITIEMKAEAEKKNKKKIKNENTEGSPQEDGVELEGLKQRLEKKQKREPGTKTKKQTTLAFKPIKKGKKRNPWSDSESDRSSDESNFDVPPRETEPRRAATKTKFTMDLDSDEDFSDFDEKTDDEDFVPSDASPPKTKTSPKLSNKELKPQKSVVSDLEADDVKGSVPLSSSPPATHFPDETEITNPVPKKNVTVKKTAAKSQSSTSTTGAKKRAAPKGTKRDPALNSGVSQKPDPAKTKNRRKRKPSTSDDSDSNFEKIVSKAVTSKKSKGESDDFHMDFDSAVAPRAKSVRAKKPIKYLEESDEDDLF

[9] = tested on: OVCAR-5; experiment: Growth inhibition of human OVCAR5 cells after 48 hrs by sulforhodamine B assay; type: functional; details: OVCAR-5, 48 h; for CC50: read-out: LC50 (the source's name)
[10] = tested on: HOP-62; experiment: Growth inhibition of human HOP62 cells after 48 hrs by sulforhodamine B assay; type: functional; details: HOP-62, 48 h
[11] = Growth inhibition of human NCI-ADR-RES cells assessed as cell growth at 10 uM after 48 hrs by sulforhodamine B assay relative to control; type: functional; details: read-out: Activity
[12] = tested on: MCF7; experiment: Cytotoxicity against human MCF7 cells; type: functional, cell-based
[13] = tested on: LOX IMVI; experiment: Growth inhibition of human LOXIMVI cells after 48 hrs by sulforhodamine B assay; type: functional
[14] = tested on: NCI-H460; experiment: Growth inhibition of human NCI-H460 cells assessed as cell growth at 10 uM after 48 hrs by sulforhodamine B assay relative to control; type: functional; details: NCI-H460, 48 h, read-out: Activity
[15] = tested on: COLO 205; experiment: Growth inhibition of human COLO205 cells assessed as cell growth at 10 uM after 48 hrs by sulforhodamine B assay relative to control; type: functional; details: COLO 205, 48 h, read-out: Activity
[16] = tested on: A498; experiment: Growth inhibition of human A498 cells after 48 hrs by sulforhodamine B assay; type: functional; details: A498, 48 h; for CC50: read-out: LC50 (the source's name)
[17] = tested on: PC-3; experiment: Growth inhibition of human PC3 cells after 48 hrs by sulforhodamine B assay; type: functional; details: PC-3, 48 h
[18] = tested on: HeLa; experiment: Cytotoxicity against human HeLa cells; type: functional, cell-based; details: Homo sapiens, HeLa
[19] = tested on: HOP-92; experiment: Growth inhibition of human HOP92 cells assessed as cell growth at 10 uM after 48 hrs by sulforhodamine B assay relative to control; type: functional; details: HOP-92, 48 h, read-out: Activity

SMILES	growth at 10 µM [1] [%]	GI50 [2] [µM]	TGI [2] [µM]	CC50 [2] [µM]	GI50 [3] [µM]	TGI [3] [µM]	CC50 [3] [µM]	GI50 [4] [µM]	TGI [4] [µM]	CC50 [4] [µM]	growth at 10 µM [5] [%]	growth at 10 µM [6] [%]	GI50 [7] [µM]	TGI [7] [µM]	CC50 [7] [µM]	GI50 [9] [µM]	TGI [9] [µM]	CC50 [9] [µM]	GI50 [10] [µM]	LC50 [10] [µM]	other results
CN(C)CCNc1nc2c(c(=N)n1-c1ccccc1)c(=S)n(-c1ccccc1)c(=S)n2-c1ccccc1	-74.6	2.9	8.3	51.1	1.5	3.4	7.8	1.9	4.7	22.1	-86.9	33.6	0.4	2.2	7.3	12.1	29.5	72.1	2.9	55.6	pIC50 [8]: < 4.00; TGI [10]: 10.1 µM; growth at 10 µM [11]: 58.8%; pIC50 [12]: 4.80; GI50 [13]: 1.4 µM; LC50 (concentration killing 50% of cells) [13]: 5.3 µM; TGI [13]: 2.7 µM; growth at 10 µM [14]: 3.8%; growth at 10 µM [15]: 6.65%; GI50 [16]: 2.4 µM; TGI [16]: 6.8 µM; CC50 [16]: 28.1 µM; GI50 [17]: 4 µM; LC50 (50% lethal concentration) [17]: 51.9 µM; TGI [17]: 17.9 µM; pIC50 [18]: 4.90
CCCCN(CCCC)CCCNc1nc2c(c(=N)n1-c1ccccc1)c(=S)n(-c1ccccc1)c(=S)n2-c1ccccc1	-73.1	1.2	2.7	5.8	0.3	1.2	3.5	0.2	0.5	1.5	-97.7	-36.1	0.2	0.3	0.7	1.4	2.8	5.5	1.2	5.4	growth at 10 µM [19]: -66.9%; TGI [10]: 2.6 µM; growth at 10 µM [11]: -71.1%; GI50 [13]: 0.2 µM; LC50 (concentration killing 50% of cells) [13]: 0.6 µM; TGI [13]: 0.3 µM; growth at 10 µM [14]: -95.7%; growth at 10 µM [15]: -74.1%; GI50 [16]: 1.1 µM; TGI [16]: 2.4 µM; CC50 [16]: 5.2 µM; GI50 [17]: 0.6 µM; LC50 (50% lethal concentration) [17]: 4.6 µM; TGI [17]: 1.9 µM
